Reference: publication PMC9239059, “Structure-Guided Synthesis of FK506 and FK520 Analogs with Increased Selectivity Exhibit In Vivo Therapeutic Efficacy against Cryptococcus” (mBio, 2022)
≈ marks a conversion by molar mass, not a printed value.

Assays:
FKBP12 = target: T1, FKBP12 (Candida albicans, UniProt C4YFI3+C4YS24+P28870); assay: BLI, compound-mediated ternary complex formation, […] compound; format: binding
T1 construct: gene RBP1; biotinylated (Avi-tagged) FKBP12; with CnA-CnB-calmodulin
T1 sequence (P28870 whole entry): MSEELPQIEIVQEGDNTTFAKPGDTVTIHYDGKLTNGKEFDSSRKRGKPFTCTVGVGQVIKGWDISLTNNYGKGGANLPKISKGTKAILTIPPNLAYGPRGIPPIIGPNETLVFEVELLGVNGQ
T1 sequence (C4YFI3 54-445): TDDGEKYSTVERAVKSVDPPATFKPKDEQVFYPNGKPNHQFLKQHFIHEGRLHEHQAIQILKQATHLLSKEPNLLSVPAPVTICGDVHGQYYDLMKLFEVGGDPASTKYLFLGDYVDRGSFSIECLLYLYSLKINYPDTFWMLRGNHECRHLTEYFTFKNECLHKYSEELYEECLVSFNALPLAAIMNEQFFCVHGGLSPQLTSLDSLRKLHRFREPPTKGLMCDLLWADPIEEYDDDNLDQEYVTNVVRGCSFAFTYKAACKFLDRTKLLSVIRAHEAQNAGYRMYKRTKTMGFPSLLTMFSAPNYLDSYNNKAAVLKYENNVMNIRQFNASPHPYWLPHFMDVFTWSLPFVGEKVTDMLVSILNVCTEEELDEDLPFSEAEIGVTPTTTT
T1 sequence (C4YS24 1-173): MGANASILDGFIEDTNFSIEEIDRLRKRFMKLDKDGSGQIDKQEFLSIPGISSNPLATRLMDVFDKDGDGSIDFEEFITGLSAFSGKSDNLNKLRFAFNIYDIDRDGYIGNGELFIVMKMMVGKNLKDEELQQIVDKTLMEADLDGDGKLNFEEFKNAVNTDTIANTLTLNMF
T1 sequence (P23286 whole entry partner): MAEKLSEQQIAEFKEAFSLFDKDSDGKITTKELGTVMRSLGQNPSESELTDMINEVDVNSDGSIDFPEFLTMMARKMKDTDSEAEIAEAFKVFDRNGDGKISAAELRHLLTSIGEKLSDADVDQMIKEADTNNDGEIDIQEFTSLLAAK

[1] = test system: T2, Cryptococcus neoformans (H99); assay: microbe, parasite or virus in culture; parameters: CLSI M27-A3 broth microdilution in RPMI 1640 at 37 C, growth inhibition of C. neoformans (MIC)
T2 construct: H99
Procedure: In vitro antifungal activities of FK506, FK520, and analogs were assessed in RPMI 1640 (Sigma-Aldrich) for all strains tested. MICs/minimum effective concentrations (MECs) for each drug were measured using modified Clinical and Laboratory Standards Institute (CLSI) M38-A2 and M27-A3 standard in vitro antifungal susceptibility protocols. Broth microdilution assays for MIC/MEC assessment were performed as described previously ([33]). All antifungal assays with C. neoformans were performed at 37°C. Antifungal susceptibility testing for C. albicans was performed in the presence of a uniform 1 μg/mL concentration of fluconazole to sensitize the organism to calcineurin inhibition. MICs/minimum effective concentrations (MECs) were determined for each of the novel analogs against the three major human fungal pathogens, A. fumigatus, C. neoformans, and C. albicans. […] Thus, analogs of FK506 and FK520 can tolerate up to 100-fold reduction in antifungal activity and still be considered for in vivo testing. For C. neoformans, MICs were the most uniform and ranged from 0.2 to 2 μg/mL, which is between 4- and 40-fold reduced for antifungal activity. C. albicans MICs ranged from 0.2 to 6.25 μg/mL, which is between 10- and 312.5-fold reduced for activity. Despite being one of the most difficult to treat fungal infections, all six analogs were active against A. fumigatus with MECs ranging from 1 to 2 μg/mL or a 62.5- to 125-fold reduction in activity.

Compound | BLI, compound-mediated ternary complex formation, 10 μM compound (FKBP12) | MIC ([1]; Cryptococcus neoformans, read-out: MIC (μg/mL) against: / Cryptococcus neoformans (H99)^a) [µg/mL] | MIC (μg/mL) against: / Cryptococcus neoformans (H99)^a ([1]; inhibitor) [µg/mL]
C=CC[C@@H]1/C=C(\C)C[C@H](C)C[C@H](OC)[C@H]2O[C@@](O)(C(=O)C(=O)N3CCCC[C@H]3C(=O)O[C@H](/C(C)=C/[C@@H]3CC[C@@H](O)[C@H](OC)C3)[C@H](C)[C@@H](O)CC1=O)[C@H](C)C[C@@H]2OC [FK506] | along with compounds FK506, APX879, FK520, JH-FK-02, and JH-FK-05 | 0.05 (≈ 0.0622 µM) | 
CC[C@@H]1/C=C(\C)C[C@H](C)C[C@H](OC)[C@H]2O[C@@](O)(C(=O)C(=O)N3CCCC[C@H]3C(=O)O[C@H](/C(C)=C/[C@@H]3CC[C@@H](O)[C@H](OC)C3)[C@H](C)[C@@H](O)CC1=O)[C@H](C)C[C@@H]2OC [FK520] | along with compounds FK506, APX879, FK520, JH-FK-02, and JH-FK-05 |  | 0.05 (≈ 0.0631 µM)
